Earlier results as cited in US11096912B2, “Valaciclovir and celecoxib combination for functional somatic syndromes” (INNOVATIVE MED CONCEPTS, LLC, priority 2012, dated 2021).

Test system: fibromyalgia patients
Conditions: valacyclovir alone; J. Rheumatology (2004) 31, 783-784

**Q.** For `CC(C)[C@H](N)C(=O)OCCOCn1cnc2c(=O)[nH]c(N)nc21` [valacyclovir], which “treatment of fibromyalgia patients” value is on record?
**A.** not successful
